Source: patent US8168639B2, “Heterotricyclic compounds as serotonergic and/or dopaminergic agents and uses thereof” (ATIR Holding S.A., priority 2006, dated 2012)

What follows are compounds tested against T1, D4.4 type dopamine receptor (human recombinant, CHO cells) (Homo sapiens, UniProt P21917) (assay: Competitive binding to D4.4 dopamine receptor, [3H]-YM-09151-2 radioligand). Details: 100 nM compound; [3H]-YM-09151-2 0.3 nM.
T1 construct: expressed in transfected cells; host or cells: CHO cells
T1 sequence (P21917 1-419): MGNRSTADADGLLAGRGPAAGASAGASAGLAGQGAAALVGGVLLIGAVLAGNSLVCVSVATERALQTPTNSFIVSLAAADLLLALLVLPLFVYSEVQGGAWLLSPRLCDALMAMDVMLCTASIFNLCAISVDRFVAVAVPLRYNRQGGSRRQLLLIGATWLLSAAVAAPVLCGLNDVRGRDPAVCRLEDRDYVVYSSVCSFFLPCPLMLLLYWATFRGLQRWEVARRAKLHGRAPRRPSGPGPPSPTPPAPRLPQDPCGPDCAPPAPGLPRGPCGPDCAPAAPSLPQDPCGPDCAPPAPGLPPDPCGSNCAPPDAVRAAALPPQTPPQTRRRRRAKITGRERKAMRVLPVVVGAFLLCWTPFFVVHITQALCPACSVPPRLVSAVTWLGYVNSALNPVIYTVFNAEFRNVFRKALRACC
Protocol: Compounds were assayed for competitive binding to the D4.4 type dopamine receptors, which is expressed as human recombinant proteins in CHO cells, as described, for example, in Jarvis et al. (1973); Van Tol et al. (1991) and Van Tol et al. (1992).
Determination of binding to D4.4 receptor was performed using [^3H]-YM-09151-2 (70-87 Ci/mmol, 0.3 nM), as a radioligand, in with the presence of various concentrations of the tested compound. Reactions were carried out in 50 mM TRIS-HCl (pH 7.4) containing 5 mM MgCl2, 5 mM EDTA, 5 mM KCl and 1.5 mM CaCl2, for 60 minutes at 22° C. The reaction was terminated by rapid vacuum filtration onto glass fiber filters. Radioactivity trapped onto the filters was determined (counted) and compared to control values in order to accurately evaluate any interaction of the tested compound(s) with the cloned dopamine D4.4 binding site.

Q: Which “D4.4(h) receptor Competitive Binding, % at 100 nM” value does the source give for O=c1[nH]c(CN2CCC(c3ccccc3)CC2)nc2sc3c(c12)CCCC3 [Compound B-93] here?
A: 16.69%

Q: CCOc1ccccc1N1CCN(Cc2nc3sc4c(c3c(=O)[nH]2)CCCC4)CC1 [Compound B-94] was tested. Which “D4.4(h) receptor Competitive Binding, % at 100 nM” value did it give?
A: 19.14%

Q: O=c1[nH]c(CN2CCN(c3cccc(O)c3)CC2)nc2sc3c(c12)CCCC3 [Compound B-95] was tested. Which “D4.4(h) receptor Competitive Binding, % at 100 nM” value did it give?
A: 32.26%

Same assay, conditions: 1 μM compound; [3H]-YM-09151-2 0.3 nM

Q: Which “D4.4(h) receptor Competitive Binding, % at 1 μM” value does the source give for O=c1[nH]c(CN2CCC(c3ccccc3)CC2)nc2sc3c(c12)CCCC3 [Compound B-93] here?
A: 81.97%

Q: Which “D4.4(h) receptor Competitive Binding, % at 1 μM” value does the source give for CCOc1ccccc1N1CCN(Cc2nc3sc4c(c3c(=O)[nH]2)CCCC4)CC1 [Compound B-94] here?
A: 89.02%

Q: O=c1[nH]c(CN2CCN(c3cccc(O)c3)CC2)nc2sc3c(c12)CCCC3 [Compound B-95] was tested. Which “D4.4(h) receptor Competitive Binding, % at 1 μM” value did it give?
A: 86.68%

What follows are compounds tested against T2, 5-HT1A type serotonin receptor (human recombinant, HEK-293 cells) (Homo sapiens, UniProt P08908) (assay: Competitive binding to 5-HT1A receptor, [3H]-8-OH-DPAT radioligand). Details: 1 nM compound; [3H]-8-OH-DPAT 0.5 nM.
T2 construct: expressed in transfected cells; host or cells: HEK-293 cells
T2 sequence (P08908 1-422): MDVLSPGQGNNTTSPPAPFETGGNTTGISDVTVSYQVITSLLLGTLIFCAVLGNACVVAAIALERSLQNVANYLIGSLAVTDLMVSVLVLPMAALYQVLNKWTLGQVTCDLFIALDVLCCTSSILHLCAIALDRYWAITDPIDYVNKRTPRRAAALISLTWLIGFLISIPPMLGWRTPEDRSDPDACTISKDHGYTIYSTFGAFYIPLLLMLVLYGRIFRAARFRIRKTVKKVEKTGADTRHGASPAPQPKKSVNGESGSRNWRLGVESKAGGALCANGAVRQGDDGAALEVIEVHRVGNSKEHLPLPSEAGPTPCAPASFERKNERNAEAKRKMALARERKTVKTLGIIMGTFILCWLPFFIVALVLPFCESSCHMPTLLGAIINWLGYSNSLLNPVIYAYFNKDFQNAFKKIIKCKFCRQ
Protocol: Compounds were assayed for competitive binding to the 5-HT1A type serotonin receptor. The receptor is expressed as human recombinant proteins in HEK-293 cells, as described, for example, in Hoyer et al. (1985) and Schoeffter and Hoyer (1989).
Determination of binding to 5-HT1A receptor was performed using [^3H]-8-OH-DPAT, a 5-HT1A receptor ligand (Hoyer et al., 1985), as a radioligand (221 Ci/mmol, 0.5 nM) in the presence of various concentrations of the tested compound. Reactions were carried out in 50 mM Tris-HCl (pH 7.4) containing 10 mM MgSO4, 0.5 mM EDTA, and 0.1% ascorbic acid for 60 minutes at 25° C. The reaction was terminated by rapid vacuum filtration onto glass fiber filters. Radioactivity trapped onto the filters was determined (counted) and compared to control values in order to accurately evaluate any interaction of the test compound(s) with the cloned 5-HT1A receptor binding site.

Q: How did the “5HT1A receptor Binding % at 1 nM” value turn out when O=c1[nH]c(CN2CCC(c3ccccc3)CC2)nc2sc3c(c12)CCCC3 [Compound B-93] was run?
A: active

Q: For CCOc1ccccc1N1CCN(Cc2nc3sc4c(c3c(=O)[nH]2)CCCC4)CC1 [Compound B-94], which “5HT1A receptor Binding % at 1 nM” value is on record?
A: 0.9%

Q: How did the “5HT1A receptor Binding % at 1 nM” value turn out when O=c1[nH]c(CN2CCN(c3cccc(O)c3)CC2)nc2sc3c(c12)CCCC3 [Compound B-95] was run?
A: active

Same assay, conditions: 10 nM compound; [3H]-8-OH-DPAT 0.5 nM

Q: O=c1[nH]c(CN2CCC(c3ccccc3)CC2)nc2sc3c(c12)CCCC3 [Compound B-93] was tested. Which “5HT1A receptor Binding % at 10 nM” value did it give?
A: active

Q: How did the “5HT1A receptor Binding % at 10 nM” value turn out when CCOc1ccccc1N1CCN(Cc2nc3sc4c(c3c(=O)[nH]2)CCCC4)CC1 [Compound B-94] was run?
A: 20.23%

Q: How did the “5HT1A receptor Binding % at 10 nM” value turn out when O=c1[nH]c(CN2CCN(c3cccc(O)c3)CC2)nc2sc3c(c12)CCCC3 [Compound B-95] was run?
A: active

Same assay, conditions: 100 nM compound; [3H]-8-OH-DPAT 0.5 nM

Q: How did the “5HT1A receptor Binding % at 100 nM” value turn out when O=c1[nH]c(CN2CCC(c3ccccc3)CC2)nc2sc3c(c12)CCCC3 [Compound B-93] was run?
A: active

Q: For CCOc1ccccc1N1CCN(Cc2nc3sc4c(c3c(=O)[nH]2)CCCC4)CC1 [Compound B-94], which “5HT1A receptor Binding % at 100 nM” value is on record?
A: 44.56%

Q: For O=c1[nH]c(CN2CCN(c3cccc(O)c3)CC2)nc2sc3c(c12)CCCC3 [Compound B-95], which “5HT1A receptor Binding % at 100 nM” value is on record?
A: active

Same assay, conditions: 1 μM compound; [3H]-8-OH-DPAT 0.5 nM

Q: For O=c1[nH]c(CN2CCC(c3ccccc3)CC2)nc2sc3c(c12)CCCC3 [Compound B-93], which “5HT1A receptor Binding % at 1 μM” value is on record?
A: active

Q: For CCOc1ccccc1N1CCN(Cc2nc3sc4c(c3c(=O)[nH]2)CCCC4)CC1 [Compound B-94], which “5HT1A receptor Binding % at 1 μM” value is on record?
A: 62.77%

Q: For O=c1[nH]c(CN2CCN(c3cccc(O)c3)CC2)nc2sc3c(c12)CCCC3 [Compound B-95], which “5HT1A receptor Binding % at 1 μM” value is on record?
A: active

Same assay, conditions: 5 μM compound; [3H]-8-OH-DPAT 0.5 nM

Q: How did the “5HT1A receptor Binding % at 5 μM” value turn out when O=c1[nH]c(CN2CCC(c3ccccc3)CC2)nc2sc3c(c12)CCCC3 [Compound B-93] was run?
A: active

Q: Which “5HT1A receptor Binding % at 5 μM” value does the source give for CCOc1ccccc1N1CCN(Cc2nc3sc4c(c3c(=O)[nH]2)CCCC4)CC1 [Compound B-94] here?
A: 97.67%

Q: O=c1[nH]c(CN2CCN(c3cccc(O)c3)CC2)nc2sc3c(c12)CCCC3 [Compound B-95] was tested. Which “5HT1A receptor Binding % at 5 μM” value did it give?
A: active

Each compound was assayed against T3, Human recombinant serotonin 5-HT1A receptors expressed in CHO cells (Homo sapiens, UniProt P08908) (assay: [35S]GTPγS 5-HT1A activity assay). Details: 10 μM compound; [35S]GTPγS binding increase relative to serotonin.
T3 construct: expressed in transfected cells; host or cells: CHO cells
T3 sequence (P08908 1-422): T2 sequence (P08908 1-422)
Type: biochemical
Protocol: Human recombinant serotonin 5-HT1A receptors expressed in CHO cells were used. The tested compound were incubated with cell membranes and [^35S]GTPγS for 30 minutes in modified HEPES buffer (pH=7.4). Test compound-induced increase of [^35S]GTPγS binding was quantified relative to serotonin-induced increase of [^35S]GTPγS. Compounds were tested at concentrations of 10, 1 and 0.1 μM.

Q: With O=c1[nH]c(CN2CCC(c3ccccc3)CC2)nc2sc3c(c12)CCCC3 [Compound B-93] as the compound, how does the “% activation of 5HT1A at 10 μM” value read?
A: active

Q: CCOc1ccccc1N1CCN(Cc2nc3sc4c(c3c(=O)[nH]2)CCCC4)CC1 [Compound B-94] was tested. Which “% activation of 5HT1A at 10 μM” value did it give?
A: 50%

Q: For O=c1[nH]c(CN2CCN(c3cccc(O)c3)CC2)nc2sc3c(c12)CCCC3 [Compound B-95], which “% activation of 5HT1A at 10 μM” value is on record?
A: active
